Assays:
[1] = tested on: iNOS; assay: iNOS expression in Raw 264.7 cells (Western blot); assay type: cell-based, murine; details: Raw 264.7 cells upon introduction of LPS and IFN-γ
Description: (§1) Raw 264.7, SK-N-SH, and HeLa cells were purchased from the American Type Culture Collection (ATCC). All three cell lines were maintained in Dulbecco's modified Eagles' media (DMEM) (GibcoBRL) containing 10% (v/v) heat-inactivated fetal bovine serum (FBS) (HyClone), 1 mM sodium pyruvate (Sigma), 100 units/ml penicillin, 100 μg/ml streptomycin (Invitrogen), and 0.1 mM nonessential amino acid solution for minimal essential medium (Sigma). All cells were grown at 37° C. in a humidified atmosphere of 10% CO2. A nitrite assay was performed with Griess reagents (Promega) on Raw 264.7 cells grown in DMEM free of phenol red. Calcium sensor fluo-4 AM was purchased from Invitrogen. MTT [3-(4,5-dimethylthiazol-2-yl)-2,5-diphenyltetrazolium bromide] (Sigma-Aldrich) assay was described in Supplementary information. The expression of iNOS in Raw 264.7 cells was analyzed by Western blot on the extracts of cells stimulated by LPS and INF-γ. The protein was silenced by short hairpin RNA-induced RNAi and the resulting cell lines were used in fluorescence imaging by Cu(FL5).

[2] = tested on: HeLa cells; assay: Control imaging in HeLa cells; assay type: cell-based
Description: We investigated the ability of Cu(FL5) to detect NO produced in SK-N-SH human neuroblastoma cells under physiological conditions, since constitutive NO synthase (“cNOS”) in this cell line can be activated by estrogen to produce NO. Estrogen administration leads to an increase in the cytosolic Ca(II) concentration that alters the structure of calmodulin, which in turn activates cNOS. The NO-dependent fluorescence response, monitored after simultaneous administration of 17β-estradiol (100 nM) and Cu(FL5) (1 μM) to the cells, was completed within 5 min with a 4.0±0.6-fold increase in fluorescence (FIGS. 5a and b). […] As another control, HeLa cells were co-treated with 17β-estradiol (100 nM) and Cu(FL5) (1 μM).
To investigate further the origin of fluorescence detected by Cu(FL5), iNOS was silenced in Raw 264.7 cells by short hairpin RNA (shRNA)-induced RNA interference (RNAi) (FIG. 6b).
Raw 264.7, SK-N-SH, and HeLa cells were purchased from the American Type Culture Collection (ATCC). […] The expression of iNOS in Raw 264.7 cells was analyzed by Western blot on the extracts of cells stimulated by LPS and INF-γ. The protein was silenced by short hairpin RNA-induced RNAi and the resulting cell lines were used in fluorescence imaging by Cu(FL5).

[3] = tested on: mixture of Raw 264.7 and SK-N-SH cells; assay: NO imaging in Raw 264.7 and SK-N-SH co-culture; assay type: cell-based; details: 17β-estradiol (100 nM) and Cu(FL5) (1 μM) for 10 min
Description: FIG. 9 illustrates NO detection in SK-N-SH and Raw 264.7 cells by Cu(FL5). Cells were treated with Cu(FL5) (1 μM) and 17β-estradiol (500 nM) for 10 min. The media were subsequently removed and the cells washed with PBS. Images were taken with a Nikon Eclipse TS100 microscope.
The fluorescence response was also monitored in a mixture of Raw 264.7 and SK-N-SH cells grown on the same plate and co-treated with 17β-estradiol (100 nM) and Cu(FL5) (1 μM) for 10 min.

[4] = tested on: SK-N-SH cells; assay: MTT cytotoxicity assay on SK-N-SH cells; assay type: cell-based, human
Description: To test the toxicity of Cu(FL5), a MTT [3-(4,5-dimethylthiazol-2-yl)-2,5-diphenyltetrazolium bromide] assay was performed on SK-N-SH cells after 5 days of incubation with Cu(FL5) (1 μM).
Thus, both Cu(FL5) and FL5−NO are not toxic under the conditions used here for bioimaging of NO.
as §1

[5] = tested on: Raw 264.7 cells; assay: MTT cytotoxicity assay on Raw 264.7 cells; assay type: cell-based, murine; details: Cu(FL5) 1 μM, 5 days
Description: as §1

[6] = Cell membrane passage in live cell studies; assay type: cell-based
Source text: In summary, we have synthesized a Cu(II)-based fluorescein compound Cu(FL5) for imaging NO based on redox chemistry. Reduction of Cu(FL5) by NO to Cu(I) with nitrosation of the FL5 ligand is accompanied by bright visible light emission. […] Studies of Cu(FL5) in pH 7.0 aqueous buffered solutions indicate that the NO response is direct, rapid, and specific.

[7] = Cu(II) binding of FL5 (UV-vis titration with CuCl2; fluorescence quenching); details: 1 μM FL5 solution, 37° C.
Description: Derivatized fluorescein molecules are excellent biosensors because they excite and emit in a region of the visible spectrum that is relatively free of interference. We prepared the fluorescein-based ligand FL5 (FIG. 4) by reacting 7′-chloro-4′-fluorescein-carboxaldehyde with 8-aminoquinaldine. We generated the Cu(II) fluorescein-based NO probe Cu(FL5) (FIG. 4) in situ reacting FL5 (prepared as described below) awith CuCl2 in a 1:1 ratio in buffered aqueous solution (50 mM PIPES, pH 7.0, 100 mM KCl). […] A Job's plot was constructed to evaluate the nature of the FL5:Cu(II) complex by following the UV-vis absorption spectral change at 512 nm in pH 7.0 buffered solution. A break at 0.5 indicated the formation of a 1:1 complex.
The fluorescence of a 1 μM FL5 solution was diminished by 18±3% upon introduction of an equimolar quantity of CuCl2 at 37° C. Addition of excess NO to a buffered aqueous Cu(FL5) solution led to an immediate 11.2±1.5-fold increase in fluorescence (FIG. 5). […] The lower detection limit for NO is 5 nM.

[8] = Quantum yield; assay type: physicochemical
Source text: Quantum yield may be obtained by comparison of the integrated area of the corrected emission spectrum of the sample with that of a reference solution. A preferred reference solution is a solution of fluorescein in 0.1 N NaOH, quantum efficiency 0.95. The concentration of the reference is adjusted to match the absorbance of the test sample. The quantum yields may be calculated using the following equation.
Upon addition of excess NO, a 499 nm peak in the UV-vis spectrum of Cu(FL5) in pH 7.0 buffered solution red-shifted back to the λmax characteristic of FL5 or the synthetic FL5−NO compound (504 nm), which differs from the band formed in the reaction of FL5 with 1 equivalent of Cu(I) added as [Cu(CH3CN)4](BF4) (506 nm). […] In addition, the spectrum of the NO reaction solution closely resembled that of the monoanionic fluorescein formed by lowering the pH from 7.0 to 5.0. […] These values are in the range previously reported for N-nitrosamines. The presence of two separate chemical shifts might arise from different isomers in solution, the Δδ of 2.29 being similar to that of previously reported of N-nitrosamines. […] Lastly, FL5−NO is brighter than FL5 or Cu(FL5), the respective quantum yields being ΦFL-NO=0.58±0.02 and ΦFL=0.077±0.002.

fluorescence diminished upon introduction of equimolar CuCl2 [7] [%]	quantum yield Φ [8]	SMILES	effect on expression of iNOS [1]	fluorescence in HeLa cells co-treated with 17β-estradiol ([2]; 17β-estradiol (100 nM), Cu(FL5) (1 μM))	turn-on fluorescence emission in HeLa cells treated with LPS and IFN-γ ([2]; LPS and IFN-γ prior to Cu(FL5) incubation)	fluorescence response in co-culture [3]	viable cells (MTT), cell line not specified ([4]; 1 μM Cu(FL5), after 5 days) [%]	survival of SK-N-SH cells (MTT) ([4]; 5 days of incubation, Cu(FL5) 1 μM) [%]	survival of Raw 264.7 cells (MTT) [5] [%]	passage through cell membranes [6]
		Cc1ccc2cccc(NCc3c([O][Cu][Cl])ccc4c(-c5ccccc5C(=O)O)c5cc(Cl)c(=O)cc-5oc34)c2n1 [Cu(FL5)]	does not affect the expression of iNOS	absence of turn-on emission	not observed	fluorescence increase was observed exclusively in the SK-N-SH cells	> 80	80±9	90±3	readily passes through cell membranes
18±3	0.077±0.002	Cc1ccc2cccc(NCc3c(O)ccc4c(-c5ccccc5C(=O)O)c5cc(Cl)c(=O)cc-5oc34)c2n1 [FL5, 2-{2-chloro-6-hydroxy-5-[(2-methyl-quinolin-8-ylamino)-methyl]-3-oxo-3H-xanthen-9-yl}-benzoic acid]								

Reference: patent US7494821B2, “Fluorescein based sensors for tracking nitric oxide in live cells” (Massachusetts Institute of Technology, priority 2005, dated 2009)
